Measured values reported in patent US20250388597A1, “BIFUNCTIONAL PHOTOCROSSLINKING PROBES FOR COVALENT CAPTURE OF PROTEIN-NUCLEIC ACID COMPLEXES IN CELLS” (UNIVERSITY OF SOUTHERN CALIFORNIA, priority 2022, published 2025).
“Also recorded” adds a separate entry of the source.

What was measured:
Assay type in all cases: biochemical
[1] = target: T1, NFAT1/DNA complex (Homo sapiens, UniProt Q13469); test: In vitro photo-crosslinking of assembled NFAT1/DNA complex, denaturing SDS gel; conditions: for formation of covalent NFAT1/DNA crosslinked complex stable under denaturing SDS-PAGE: probe + UV 365 nm, 2% SDS, boil 10 min
T1 construct: human NFAT1 protein (residue 399-676, NFAT1-DBD)
T1 sequence (Q13469 399-676): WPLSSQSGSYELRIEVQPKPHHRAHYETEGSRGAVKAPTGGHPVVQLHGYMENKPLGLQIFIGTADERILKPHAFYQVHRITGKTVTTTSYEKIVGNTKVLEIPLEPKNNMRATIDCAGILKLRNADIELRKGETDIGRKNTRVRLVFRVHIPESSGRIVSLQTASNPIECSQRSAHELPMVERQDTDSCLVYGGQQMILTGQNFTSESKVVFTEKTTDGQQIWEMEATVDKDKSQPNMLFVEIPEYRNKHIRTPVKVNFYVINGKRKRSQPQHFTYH
Method: The probe binding and UV crosslinking were carried out as described in FIG. 5G and FIG. 7. The crosslinked complexes (lane 3 and lane 6) were further treated with DTT (100 mM, heat 50 degree C. for 30 min). The reaction mixtures were run on SDS gel and visualized by FAM fluorescence for DNA (top) and by Coomassie blue stain for protein (bottom) as described in FIG. 7. FIG. 7 depicts denaturing SDS gel analysis of covalent capture of in vitro assembled MEF2/DNA and NFAT1/DNA complexes by the BFPX probe, SPB-AAD. […] The protein/DNA complexes are incubated at room temperature for 30 min, and treated with various combination of BFPX probe (SPB-AAD) and UV illumination as described in FIG. 5G. […] The reaction mixtures were added SDS loading dye (2% SDS), boil for 10 min, and run on SDS gel (Bio-Rad Any Kd gradient gel). The same gel was visualized by FAM fluorescence for DNA (top) and by Coomassie blue stain for protein (bottom). FIG. 8C depicts denaturing SDS gel analysis of covalent capture of in vitro assembled MEF2/DNA and NFAT1/DNA complexes by the BFPX probe, SPB-PEG3-AAD. […] The reaction mixtures were run on SDS gel and visualized by FAM fluorescence for DNA (top) and by Coomassie blue stain for protein (bottom) as described in FIG. 7. […] Typically protein and DNA are mixed to bind at room temperature for 30 min, followed by addition of BFPX probes for an additional 15 min and then UV illumination. In the case of FA treatment, the reaction time is 10 min at room temperature and then quenched by 250 mM glycine. […] The UV illumination (as indicated by a positive sign) was carried out using a LED Chip (21.4 mm×21.4 mm, 365-370 nm, 30 Watt, sample distance 2 cm, exposure time 2-15 min at 4 degree C., here the exposure time is 15 min). […] The small amount of single stranded DNA is due to incomplete annealing. The higher smearing bands are most likely non-specific protein complexes. Neither of these experimental imperfections affected the main conclusion of this experiment because the double stranded-DNA bands and the specific NFAT-DNA complex bands (the middle sharp bands) are well defined and can be monitored without the interference of the other bands. […] The gel was visualized by Cy5 fluorescence for DNA. FIG. 12E depicts further characterization of BFPX crosslinking of NFAT1/DNA complexes using different DNA substrates and staining techniques. Two unlabeled DNA substrates containing a core NFAT-binding site and different flanking bases and sequence lengths ([…] ID NO: 4), 21 mer, c2: [NT] ID NO: 5), 16 mer) were used to bind the NFAT1-DBD as described in FIG. 12C. […] The reactions were then analyzed by SDS PAGE under denaturing condition as described in FIG. 12D. Because the DNA is unlabeled, the gel was stained using either cyanine-based dye (SYBR Safe) or Coomassie Blue stain (CB). […] The different size of the NFAT-c1DNA complexes (lane 2) and NFAT-c2DNA complexes (lane 4) was resolved by loading reactions of lane 2 (2a, 2b and 2c) and lane 4 (4a, 4b and 4c) as triplicates side-by-side on the same gel (lower panel) using either SYBR and CB stain. FIG. 12F depicts time course of BFPX crosslinking of NFAT1/DNA complexes. […] The reactions at different time points were then analyzed on SDS gel as described in FIG. 12D. […] When the UV exposure time is longer than 5 min, a significant amount of crosslinked NFAT-DNA complex can be formed with UV illumination without SPB-AAD.

[2] = target: T2, p53/DNA complex (Homo sapiens, UniProt P04637); test: BFPX crosslinking of p53/DNA complexes, SDS PAGE; conditions: denaturing SDS PAGE; probes with UV; vs no-protein controls
T2 construct: the human tumor suppressor p53 DBD; made in house
T2 sequence (P04637 102-292 limits assumed, one chain of several): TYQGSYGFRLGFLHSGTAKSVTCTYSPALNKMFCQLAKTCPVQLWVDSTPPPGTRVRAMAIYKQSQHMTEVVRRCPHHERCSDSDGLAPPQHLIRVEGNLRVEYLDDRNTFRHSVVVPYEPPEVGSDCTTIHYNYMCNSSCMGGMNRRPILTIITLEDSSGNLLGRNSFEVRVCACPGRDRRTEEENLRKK
Method: FIG. 12I depicts BFPX crosslinking of p53/DNA complexes. The binding reactions between the human tumor suppressor p53 DBD and a 37 mer Cy5 labeled DNA containing a consensus p53 tetramer binding site (5′-/5Cy5/-[…]-3′, (SEQ ID NO: 8)) were set up and treated with BFPX probes and UV illumination as described in FIG. 12C. The various treatment combinations were list above the gel. The reactions were then analyzed by SDS PAGE under denaturing condition as described in FIG. 12D. […] Because p53 bind this this DNA substrate as a tetramer, crosslinked p53/DNA complexes may contain one or more p53 protein molecules. While the monomeric p53/DNA complex appears to be the dominant crosslinked protein-DNA complexes, higher-molecule weight species were visible in SDS gel, which may correspond to crosslinked higher-order p53/DNA complex.

[3] = target: T3, DNA binding by NFAT1 (Homo sapiens, UniProt Q13469); test: Native EMSA of the effect on DNA binding by NFAT1; conditions: FIG. 12C; increasing concentrations; probes with UV 365 nm 15 min; compared to control lane 3
T3 construct: human NFAT1 protein (residue 399-676, NFAT1-DBD)
T3 sequence (Q13469 399-676): T1 sequence (Q13469 399-676)
Method: All binding reactions contain 10 μM 27 mer dsDNA (5′6-FAM labeled) with a NFAT-binding site, and various combinations of NFAT1 protein (14 μM), FA (1% v/v), 4AMT-LC-SDA (20 μM), with or without UV illumination (365 nm, LED, 30 Watt, sample distance 2 cm, exposure time 15 min at 4 degree C.). 10 μl of the binding reaction is run on a 10% PAGE 0.5×TBE gel. The same gel was visualized by FAM fluorescence for DNA (top) and by Coomassie blue stain for protein (bottom). The higher smearing bands in lane 3, 8, 9, and 10 are most likely non-specific protein complexes often seen when an excessive amount of protein is used to ensure all DNA is bound.
The binding reactions were performed in a buffer of 20 mM Hepes pH 7.6, 150 mM NaCl, 1 mM DTT, 12% glycerol. Typically protein and DNA are mixed to bind at room temperature for 30 min, followed by addition of BFPX probes for an additional 15 min and then UV illumination. In the case of FA treatment, the reaction time is 10 min at room temperature and then quenched by 250 mM glycine. When included (as indicated by a positive sign), the binding reaction contains 10 μM 27 mer dsDNA (Cy5-labeled) with a NFAT-binding site (the antigen receptor response element 2, ARRE2, from the IL-2 promoter, 5′-Cy5-[sequence]-3′ (SEQ ID NO: 2), the complementary strand is not labeled), 24 μM of the DNA binding domain (DBD) of human NFAT1 protein (residue 399-676, NFAT1-DBD). The UV illumination (as indicated by a positive sign) was carried out using a LED Chip (21.4 mm×21.4 mm, 365-370 nm, 30 Watt, sample distance 2 cm, exposure time 2-15 min at 4 degree C., here the exposure time is 15 min). Half of the binding reaction (7.5 μl) was run on a 10% PAGE 0.5×TBE gel and visualized by Cy5 fluorescence on DNA. The small amount of single stranded DNA is due to incomplete annealing. The higher smearing bands are most likely non-specific protein complexes. Neither of these experimental imperfections affected the main conclusion of this experiment because the double stranded-DNA bands and the specific NFAT-DNA complex bands (the middle sharp bands) are well defined and can be monitored without the interference of the other bands.
The presence of both DNA and protein in the same shifted band can be checked by the FAM fluorescence signal (top) and Coomassie stain (bottom), respectively (free NFAT is positively charged and not observable under the EMSA condition).

Row | effect on the binding of NFAT1 to DNA [3] | low probe concentration at which a significant amount of crosslinked protein complex was observed ([1]; NFAT1/DNA, FIG. 7 lane 12, UV 365 nm) | UV illumination time at which crosslinked complex was visible ([1]; NFAT1/DNA, probe 100 μM) | UV illumination time at which crosslinking reached plateau ([1]; NFAT1/DNA, probe 100 μM, plateau around 100 seconds and 5 min time points) | SMILES | formation of covalent NFAT1/DNA crosslinked complex stable under denaturing SDS-PAGE [1] | crosslinking of the p53/DNA complex [2]
1 | little or no effect |  |  |  | C#CCCC1(CCNC(=O)CCOCCOCCOCCOCCNC(=O)CCCOc2c3occc3cc3ccc(=O)oc23)N=N1 [SPB-PEG4-AAD, N-(2-(3-(but-3-yn-1-yl)-3H-diazirin-3-yl)ethyl)-1-(4-((7-oxo-7H-furo[3,2-g]chromen-9-yl)oxy)butanamido)-3,6,9,12-tetraoxapentadecan-15-amide] | dosage dependent crosslinking of NFAT1/DNA complexes | significant crosslinking of the p53/DNA complex
2 |  |  |  |  | C#CCCC1(CCNC(=O)CCOCCOCCOCCC(=O)NCCNC(=O)CCCOc2c3occc3cc3ccc(=O)oc23)N=N1 [SPB-PEG3-AAD] | highly efficient crosslinking | 
3 | little or no effect | 0.125 µM | 3 s | around 100 seconds | C#CCCC1(CCNC(=O)CCCOc2c3occc3cc3ccc(=O)oc23)N=N1 [SPB-AAD, N-(2-(3-(but-3-yn-1-yl)-3H-diazirin-3-yl)ethyl)-4-((7-oxo-7H-furo[3,2-g]chromen-9-yl)oxy)butanamide] | dosage dependent crosslinking of NFAT1/DNA complexes; also recorded: formation of complexes that run as larger molecular species than both free protein and DNA; also recorded: NFAT was crosslinked to c1 DNA (lane 2) and c2 DNA (lane 4) in the presence of UV | significant crosslinking of the p53/DNA complex
